From patent US6924302B2, “Substituted triazole diamine derivatives as kinase inhibitors” (Ortho McNeil Pharmaceutical, Inc., priority 2000, dated 2005)
pIC50: −log10 of the molar value. Like-named read-outs stand apart in the source and are kept apart here.

Columns and labels:
Assay type in all cases: biochemical
CDK1:Cyclin-B = biological target: T1, CDK1:Cyclin-B (Homo sapiens, UniProt P06493); experiment: CDK1 Screening Assay; conditions: read-out: CDK1 IC50
T1 construct: purchased New England Biolabs 6020; host or cells: insect cells
T1 sequence (P06493 whole entry): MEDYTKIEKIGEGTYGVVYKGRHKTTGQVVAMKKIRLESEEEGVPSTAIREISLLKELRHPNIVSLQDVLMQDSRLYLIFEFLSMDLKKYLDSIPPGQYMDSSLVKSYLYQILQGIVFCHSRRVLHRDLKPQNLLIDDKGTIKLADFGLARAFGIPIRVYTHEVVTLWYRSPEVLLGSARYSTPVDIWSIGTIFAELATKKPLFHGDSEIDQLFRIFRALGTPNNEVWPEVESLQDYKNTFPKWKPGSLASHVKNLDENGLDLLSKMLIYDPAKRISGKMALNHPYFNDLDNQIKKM
T1 sequence (P14635 whole entry partner): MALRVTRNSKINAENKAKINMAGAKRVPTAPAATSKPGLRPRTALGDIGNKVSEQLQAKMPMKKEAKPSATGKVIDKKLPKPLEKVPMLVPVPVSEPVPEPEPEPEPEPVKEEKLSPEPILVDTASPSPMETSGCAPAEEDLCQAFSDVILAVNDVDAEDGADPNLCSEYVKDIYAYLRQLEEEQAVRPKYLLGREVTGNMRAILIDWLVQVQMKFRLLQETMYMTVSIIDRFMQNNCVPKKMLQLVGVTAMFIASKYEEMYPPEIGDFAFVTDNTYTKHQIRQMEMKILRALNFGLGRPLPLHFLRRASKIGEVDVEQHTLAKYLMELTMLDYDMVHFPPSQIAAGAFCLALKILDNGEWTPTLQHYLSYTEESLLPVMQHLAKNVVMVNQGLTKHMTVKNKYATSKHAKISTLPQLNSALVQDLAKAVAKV
How it was run: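 Human CDK1:cyclin-B (30 ng/well) with biotinylated histone-H1 peptide and ^33P-γ-ATP, 1 h at 30° C, 1% DMSO, on streptavidin FlashPlate; incorporation read by scintillation.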

Insulin Receptor Kinase = Insulin Receptor Kinase (Homo sapiens, UniProt P06213); experiment: Kinase Selectivity Assay Insulin Receptor Kinase; conditions: Kinase Selectivity, Tables 2a-2k; read-out: Insulin R Kinase IC50
Insulin Receptor Kinase, sequence (P06213 980-1352): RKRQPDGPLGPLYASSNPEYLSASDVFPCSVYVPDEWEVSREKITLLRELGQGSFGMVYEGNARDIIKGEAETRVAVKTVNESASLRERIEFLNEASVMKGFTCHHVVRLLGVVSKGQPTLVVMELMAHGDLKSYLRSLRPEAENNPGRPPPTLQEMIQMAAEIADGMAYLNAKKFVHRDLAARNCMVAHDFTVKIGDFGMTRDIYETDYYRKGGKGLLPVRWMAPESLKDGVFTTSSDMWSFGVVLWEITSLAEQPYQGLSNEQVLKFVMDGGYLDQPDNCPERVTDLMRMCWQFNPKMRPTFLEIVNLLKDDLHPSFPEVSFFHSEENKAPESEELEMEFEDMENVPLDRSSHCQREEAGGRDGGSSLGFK
How it was run: (§1)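 Biotinylated peptide phosphorylation measured as ^33P-γ-ATP incorporation on streptavidin plates after 1 h at 30° C, 1% DMSO final, enzyme in 50 mM Tris-HCl pH 8.0, 0.1% BSA. Compounds in duplicate at 8 concentrations, 100 uM to 10 pM. IC50 from percent inhibition versus log concentration.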

[1] = biological target: T2, Casein Kinase 2 (alpha and beta subunits) (Homo sapiens, UniProt P68400); experiment: Kinase Selectivity Assay Casein Kinase 2; conditions: Kinase Selectivity, Tables 2a-2k; read-out: Caseine Kinase 2 IC50
T2 construct: purchased New England Biolabs 6010; host or cells: E. coli
T2 sequence (P68400 whole entry): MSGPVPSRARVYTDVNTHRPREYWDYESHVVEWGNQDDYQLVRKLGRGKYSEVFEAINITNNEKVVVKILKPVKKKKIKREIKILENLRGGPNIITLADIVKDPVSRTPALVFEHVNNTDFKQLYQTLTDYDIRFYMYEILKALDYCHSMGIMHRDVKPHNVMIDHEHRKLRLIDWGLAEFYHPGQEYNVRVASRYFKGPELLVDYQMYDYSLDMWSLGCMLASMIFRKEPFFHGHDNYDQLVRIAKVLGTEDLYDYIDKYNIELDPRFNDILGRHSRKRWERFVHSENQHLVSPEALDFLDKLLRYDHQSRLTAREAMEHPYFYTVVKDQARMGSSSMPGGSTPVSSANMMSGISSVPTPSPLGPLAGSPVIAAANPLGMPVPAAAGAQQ
T2 sequence (P67870 whole entry partner): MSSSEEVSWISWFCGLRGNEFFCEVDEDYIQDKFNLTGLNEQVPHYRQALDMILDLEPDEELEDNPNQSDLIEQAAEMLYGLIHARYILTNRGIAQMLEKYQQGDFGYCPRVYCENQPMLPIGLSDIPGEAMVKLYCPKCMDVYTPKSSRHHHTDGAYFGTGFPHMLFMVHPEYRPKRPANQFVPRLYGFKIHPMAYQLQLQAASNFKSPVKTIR
How it was run: as §1

[2] = biological target: T3, MAP Kinase (ERK-2 isoform) (Rattus norvegicus, UniProt P63086); experiment: Kinase Selectivity Assay MAP Kinase (ERK-2); conditions: Kinase Selectivity, Tables 2a-2k; read-out: ERK 2 IC50
T3 construct: polyhistidine (N); host or cells: E. coli
T3 sequence (P63086 whole entry, canonical isoform): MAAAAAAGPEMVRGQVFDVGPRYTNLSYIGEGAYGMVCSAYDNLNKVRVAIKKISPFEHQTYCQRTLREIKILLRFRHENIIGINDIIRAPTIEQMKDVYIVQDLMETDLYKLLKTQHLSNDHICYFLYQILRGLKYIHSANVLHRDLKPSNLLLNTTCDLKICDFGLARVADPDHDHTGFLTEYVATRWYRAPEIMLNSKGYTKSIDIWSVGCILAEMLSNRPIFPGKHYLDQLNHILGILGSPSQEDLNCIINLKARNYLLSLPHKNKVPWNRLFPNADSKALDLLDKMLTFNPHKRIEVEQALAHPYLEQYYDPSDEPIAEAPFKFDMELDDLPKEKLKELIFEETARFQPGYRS
How it was run: as §1

[3] = Kinase Selectivity, Tables 2a-2k

| SMILES | pIC50 (CDK1:Cyclin-B; [3]) | pIC50 (CDK1:Cyclin-B; Table 1) | pIC50 (Insulin Receptor Kinase) | pIC50 [1] | pIC50 [2] |
| --- | --- | --- | --- | --- | --- |
| Nc1nc(Nc2ccc(S(=O)(=O)Nc3ccccn3)cc2)nn1C(=O)c1c(F)cccc1F [Cpd 118, 4-[[5-amino-1-(2,6-difluorobenzoyl)-1H-1,2,4-triazol-3-yl]amino]-N-(2-pyridinyl)-benzenesulfonamide] | 6.48 | 6.48 | < 4.00 | < 4.00 | < 4.00 |
| Cc1cc(C)c(C(=O)n2nc(Nc3ccc(S(=O)(=O)Nc4ccccn4)cc3)nc2N)s1 [Cpd 120] | 6.56 | 6.56 | < 4.00 | < 4.00 | < 4.00 |
| Cc1ccc(F)c(C(=O)n2nc(N)nc2Nc2ccc(S(N)(=O)=O)cc2)c1F [Cpd 123, 4-[[3-amino-1-(2,6-difluoro-3-methylbenzoyl)-1H-1,2,4-triazol-5-yl]amino]-benzenesulfonamide] | 5.69 | 5.69 | < 4.00 | < 4.00 | < 4.00 |
